The inhibition is the relative decrease from the control value, in per cent.

The first test has as its target T1, rat B1R (bradykinin receptor 1) (Rattus norvegicus, UniProt P97583).
T1 construct: expressed in transfected cells; host or cells: CHO K1 cells
T1 sequence (P97583 1-337): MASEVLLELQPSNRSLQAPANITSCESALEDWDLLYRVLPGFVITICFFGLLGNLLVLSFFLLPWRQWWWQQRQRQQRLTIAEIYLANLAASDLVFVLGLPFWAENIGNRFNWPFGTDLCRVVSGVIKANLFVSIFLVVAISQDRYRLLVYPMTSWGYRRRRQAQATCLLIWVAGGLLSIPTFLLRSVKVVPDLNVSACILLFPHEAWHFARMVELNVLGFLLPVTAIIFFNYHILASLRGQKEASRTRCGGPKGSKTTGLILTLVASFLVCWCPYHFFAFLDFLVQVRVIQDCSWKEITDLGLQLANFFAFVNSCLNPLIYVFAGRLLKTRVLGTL
The test can be described thus: FLIPR Ca2+ assay (Fluo-4) on CHO K1 cells stably transfected with the B1R gene of the rat (rB1R cells): % inhibition at 10 μM / IC50, agonist Des-Arg9-bradykinin. The class given is cell-based. The conditions noted are these: CHO-K1, rat B1R. The method in brief:
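Stable CHO K1 lines, Fluo-4 dye, probenecid-containing buffer. Cpd 10 μM or dose range, 10–20 min, then EC80 agonist (h: Lys-Des-Arg9-BK; r: Des-Arg9-BK). Readout peak FC; % inhibition vs max; IC50 from n=2–3, N≥2.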
Take `CC1(C)CC(NC(=O)c2cc(Cl)ccc2C(F)(F)F)c2cc(C(=O)N3CCC4(CC3)CCN(c3ccncc3)CC4)ccc21` (centres unmarked) [IND_CC-315, 5-Chloro-N-[3,3-dimethyl-6-(3-pyridin-4-yl-3,9-diazaspiro[5.5]undecane-9-carbonyl)-1,2-dihydro-inden-1-yl]-2-(trifluoromethyl)-benzamide]: the inhibition at 10 µM was found to be 101%.
With `O=C(NC1CCc2ccc(C(=O)N3CCC4(CCN(Cc5ccc6nccnc6c5)CC4)CC3)cc21)c1cccc(Cl)c1Cl` (centres unmarked) [IND_CC-755, 2,3-Dichloro-N-[6-[9-(quinoxalin-6-yl-methyl)-3,9-diazaspiro[5.5]undecane-3-carbonyl]-2,3-dihydro-1H-inden-1-yl]-benzamide], the inhibition at 10 µM stood at 92%.
Turning to `CC(C)CN1CCC2(CC1)CCN(C(=O)c1ccc3c(c1)C(NC(=O)c1cccc(Cl)c1Cl)CC3)CC2` (centres unmarked) [IND_CC-757, 2,3-Dichloro-N-[6-[9-(2-methyl-propyl)-3,9-diazaspiro[5.5]undecane-3-carbonyl]-2,3-dihydro-1H-inden-1-yl]-benzamide], the inhibition at 10 µM was found to be 52%.
Turning to `Cc1cccc(Cl)c1C(=O)NC1CCc2ccc(C(=O)N3CCC4(CCN(Cc5ccccc5C#N)CC4)C3)cc21` (centres unmarked) [IND_CC-733, 2-Chloro-N-[6-[8-[(2-cyano-phenyl)-methyl]-2,8-diazaspiro[4.5]decane-2-carbonyl]-2,3-dihydro-1H-inden-1-yl]-6-methyl-benzamide], the inhibition at 10 µM turned out to be 83%.
On the same count and under the same terms, for `O=C(NC1CCc2ccc(C(=O)N3CCC4(CCN(c5ccncc5)CC4)C3)cc21)c1ccccc1F` (centres unmarked) [IND_CC-402, 2-Fluoro-N-[6-(8-pyridin-4-yl-2,8-diazaspiro[4.5]decane-2-carbonyl)-2,3-dihydro-1H-inden-1-yl]-benzamide] the value was 102%; for `Cc1ccccc1C(=O)NC1CCc2ccc(C(=O)N3CCC4(CC3)CCN(c3ccncc3)CC4)cc21` (centres unmarked) [IND_CC-346, 2-Methyl-N-[6-(9-pyridin-4-yl-3,9-diazaspiro[5.5]undecane-3-carbonyl)-2,3-dihydro-1H-inden-1-yl]-benzamide], 104%.
Consider `O=C(NC1CCc2ccc(C(=O)N3CCC4(CCN(CC5CCCCC5)CC4)C3)cc21)c1c(F)cccc1Cl` (centres unmarked) [IND_CC-779, 2-Chloro-N-[6-[8-(cyclohexyl-methyl)-2,8-diazaspiro[4.5]decane-2-carbonyl]-2,3-dihydro-1H-inden-1-yl]-6-fluoro-benzamide], for which the inhibition at 10 µM stood at 69%.
Take `O=C(NC1CCc2ccc(C(=O)N3CCC4(CCN(c5ccncc5)CC4)C3)cc21)C1CCC1` (centres unmarked) [IND_CC-415, N-[6-(8-Pyridin-4-yl-2,8-diazaspiro[4.5]decane-2-carbonyl)-2,3-dihydro-1H-inden-1-yl]-cyclobutanecarboxylic acid amide]: the inhibition at 10 µM was found to be 100%.
Turning to `Cc1noc(C)c1CN1CCC2(CC1)CCN(C(=O)c1ccc3c(c1)C(NC(=O)c1cc(C(F)(F)F)ccc1Cl)CC3)C2` (centres unmarked) [IND_CC-657, 2-Chloro-N-[6-[8-[(3,5-dimethyl-isoxazol-4-yl)-methyl]-2,8-diazaspiro[4.5]-decane-2-carbonyl]-2,3-dihydro-1H-inden-1-yl]-5-(trifluoromethyl)-benzamide], the inhibition at 10 µM came out at 66%.
Turning to `CC1(C)Cc2ccc(C(=O)N3CCC4(CC3)CCN(c3ccncc3)CC4)cc2C1NS(=O)(=O)c1ccc(Cl)cc1Cl` (centres unmarked) [IND_CC-334, 2,4-Dichloro-N-[2,2-dimethyl-6-(9-pyridin-4-yl-3,9-diazaspiro[5.5]undecane-3-carbonyl)-1,3-dihydro-inden-1-yl]-benzenesulfonic acid amide], the inhibition at 10 µM amounted to 90%.
Turning to `CC(C)(C)CC(=O)N1CCC2(CC1)CCN(C(=O)c1ccc3c(c1)C(N(C(=O)c1ccccc1Cl)C1CC1)CC3)C2` (centres unmarked) [IND_CC-604, 2-Chloro-N-cyclopropyl-N-[6-[8-(3,3-dimethyl-butanoyl)-2,8-diazaspiro[4.5]decane-2-carbonyl]-2,3-dihydro-1H-inden-1-yl]-benzamide], the inhibition at 10 µM is 94%.
Same read-out and setting: for `Cc1cccc(Cl)c1C(=O)NC1CCc2ccc(C(=O)N3CCC4(CCN(Cc5c(F)cccc5Cl)CC4)C3)cc21` (centres unmarked) [IND_CC-735, 2-Chloro-N-[6-[8-[(2-chloro-6-fluoro-phenyl)-methyl]-2,8-diazaspiro-[4.5]decane-2-carbonyl]-2,3-dihydro-1H-inden-1-yl]-6-methyl-benzamide] the value was 81%; for `CCC(C)C(=O)NC1CCc2ccc(C(=O)N3CCC4(CCN(c5ccncc5)CC4)C3)cc21` (centres unmarked) [IND_CC-417, 2-Methyl-N-[6-(8-pyridin-4-yl-2,8-diazaspiro[4.5]decane-2-carbonyl)-2,3-dihydro-1H-inden-1-yl]-butyramide], 102%; for `N#Cc1cc(S(=O)(=O)N2CCC3(CCN(C(=O)c4ccc5c(c4)C(NC(=O)c4ccccc4Cl)CC5)CC3)CC2)ccc1F` (centres unmarked) [IND_CC-610, 2-Chloro-N-[6-[9-[(3-cyano-4-fluoro-phenyl)sulfonyl]-3,9-diazaspiro[5.5]undecane-3-carbonyl]-2,3-dihydro-1H-inden-1-yl]-benzamide], 103%.
As to `CN(C1CCc2ccc(C(=O)N3CCC4(CC3)CCN(c3ccncc3)CC4)cc21)S(=O)(=O)c1cc(Cl)c(Cl)cc1Cl` (centres unmarked) [IND_CC-362, 2,4,5-Trichloro-N-methyl-N-[6-(9-pyridin-4-yl-3,9-diazaspiro[5.5]undecane-3-carbonyl)-2,3-dihydro-1H-inden-1-yl]-benzenesulfonic acid amide], the inhibition at 10 µM was determined as 81%.
The same measure, in the same setting: with `O=C(NC1CCc2ccc(C(=O)N3CCC4(CCN(Cc5ccc6ncccc6c5)CC4)CC3)cc21)c1cccc(Cl)c1Cl` (centres unmarked) [IND_CC-754, 2,3-Dichloro-N-[6-[9-(quinolin-6-yl-methyl)-3,9-diazaspiro[5.5]undecane-3-carbonyl]-2,3-dihydro-1H-inden-1-yl]-benzamide] the figure was 87%; with `O=C(NC1CCc2ccc(C(=O)N3CCC4(CCN(S(=O)(=O)c5ccc(F)cc5F)CC4)C3)cc21)c1ccccc1Cl` (centres unmarked) [IND_CC-500, 2-Chloro-N-[6-[8-[(2,4-difluoro-phenyl)sulfonyl]-2,8-diazaspiro[4.5]decane-2-carbonyl]-2,3-dihydro-1H-inden-1-yl]-benzamide], 51%; with `Cn1nc(C(C)(C)C)cc1C(=O)N1CCC2(CCN(C(=O)c3ccc4c(c3)C(NC(=O)c3sccc3Cl)CC4)C2)CC1` (centres unmarked) [IND_CC-587, N-[6-[8-(5-tert-Butyl-2-methyl-2H-pyrazole-3-carbonyl)-2,8-diazaspiro[4.5]-decane-2-carbonyl]-2,3-dihydro-1H-inden-1-yl]-3-chloro-thiophene-2-carboxylic acid amide], 71%.
Still for that read-out and setting: with `O=C(c1ccc2c(c1)C(NS(=O)(=O)c1cc(Cl)c(Cl)cc1Cl)CC2)N1CCC2(CC1)CCN(c1ccncc1)C2` (centres unmarked) [IND_CC-363, 2,4,5-Trichloro-N-[6-(2-pyridin-4-yl-2,8-diazaspiro[4.5]decane-8-carbonyl)-2,3-dihydro-1H-inden-1-yl]-benzenesulfonic acid amide] the figure was 74%.

Still in this test, the particulars now being: rat B1R.
For the compound “2-Chloro-N-[6-[9-[(1-methyl-1H-benzotriazol-5-yl)-methyl]-3,9-diazaspiro[5.5]-undecane-3-carbonyl]-2,3-dihydro-1H-inden-1-yl]-5-(trifluoromethyl)-benzamide [IND_CC-697]”, the “% Inhibition (rat B1R) at 10 μM” value is recorded as 98%.

For the origin of these results see patent US8455475B2 (Gruenenthal GmbH, priority 2009, dated 2013).
